In patent US11970461B1, “1-hexyl-5-(4-methoxyphenyl)-2,4-diphenyl-1H-imidazole as an antimicrobial compound” (KING FAISAL UNIVERSITY, priority 2023, dated 2024):

What was measured:
[1] = system: Escherichia coli; assay: antimicrobial testing by agar dilution, Escherichia coli; assay type: cell-based; conditions: after 10, 20, 40 and 60 minutes at all dilutions 1:100, 1:200, 1:400, 1:800
Description: (§1) The antimicrobial properties of the 1-hexyl-5-(4-methoxyphenyl)-2,4-diphenyl-1H-imidazole was studied by the method of agar dilution. Test solutions of each compound was prepared in concentration of 1% using dimethylformamide as a solvent then they are diluted in physiological solution to obtain the final experimental dilutions 1:100, 1:200, 1:400, 1:800. The effect of these substances are compared with furacillin in a controllable study. The testing microbes used were gram positive bacteria Staphylococcus aureus, gram negative bacteria Escherichia coli, Pseudomonas aeruginosa and Candida albicans fungi were taken. The experiments used for this survey were meat-pentonlu agar (EPA) for cultivation of bacteria and Saburo environment for fungi. Each experiment used 1 ml of test solution on each plate 500 min. Add 2 drops of emulsified with microbes feel. All experimental samples were taken from the agar after 10, 20, 40, 60 minutes in the environment on the basis of Patrk planted. Bacteria were cultivated at a temperature of 37° C. for 1 day and the mushroom was kept in a thermostat for […] at a temperature of 28° C. Then the results were checked.

[2] = system: Pseudomonas aeruginosa; assay: antimicrobial testing by agar dilution, Pseudomonas aeruginosa; assay type: cell-based; conditions: after 10, 20, 40 and 60 minutes at all dilutions 1:100, 1:200, 1:400, 1:800
Description: as §1

[3] = system: Candida albicans; assay: antimicrobial testing by agar dilution, Candida albicans; assay type: cell-based; conditions: after 10, 20, 40 and 60 minutes at all dilutions 1:100, 1:200, 1:400, 1:800
Description: as §1

[4] = system: Staphylococcus aureus; assay: antimicrobial testing by agar dilution, Staphylococcus aureus; assay type: cell-based; conditions: after 10, 20, 40 and 60 minutes at all dilutions 1:100, 1:200, 1:400, 1:800
Description: as §1

In the case of `CCCCCCn1c(-c2ccccc2)nc(-c2ccccc2)c1-c1ccc(OC)cc1` [1-hexyl-5-(4-methoxyphenyl)-2,4-diphenyl-1H-imidazole], the “inhibition activity, Escherichia coli” value [1] is reported as “higher inhibition activity”, the “inhibition activity, Pseudomonas aeruginosa” value [2] is reported as “higher inhibition activity” and the melting point is reported as 161 to 162 °C. For the same molecule, the “inhibition activity, Candida albicans” value [3] was “higher inhibition activity” and the “inhibition activity, Staphylococcus aureus” value [4] was “higher inhibition activity”.
